Assays:
Format in all cases: in vivo, mice
[1] = tested on: MMTV-PyMT lung metastases; assay: MMTV-PyMT transgenic mouse breast cancer model, lung metastases quantification; settings: T/C of average lung metastases number; 200 mg/kg po qd; p<0.05
Description: (§1) MMTV-PyMT (Guy et al, 1992) (FVB) female mice were randomized by non-statistical methods to LOX inhibitor treatment groups from day 70 post-birth, when animals had no detectable tumour. Mice were treated daily by oral gavage with LOX inhibitor in vehicle, or daily vehicle (5% DMSO/2.5% Tween20 in water) by oral gavage. Tumour size was determined unblinded by caliper measurements of tumour length, width and depth and volume was calculated as 0.5236×length×width×depth (mm). In all experiments, mice were humanely killed and mammary tumours and lungs were collected when the primary tumours reached ethical limits or signs of ill health.
For lung metastases quantification, all mouse tissue samples were fixed in 10% formalin (Sigma) and embedded in paraffin. Samples were sectioned and hematoxylin and eosin (H&E) stained. Samples were imaged with a Leica SCN400 slide scanner. […] Lung metastases number was counted and area was measured using ImageScope. […] The ratio of average metastases surface between compound treated and vehicle control treated (T/C) is calculated. The ratio of average metastases numbers between compound treated and vehicle control treated (T/C) is also calculated. […] The antimetastatic efficacy of LOX inhibitors described in this invention, as measured by T/C in a model of breast cancer metastasising to lungs is shown in Table 4 and is significant (p<0.05) for all the data presented.

[2] = tested on: MMTV-PyMT mammary tumours; assay: MMTV-PyMT transgenic mouse breast cancer model, primary tumour volume; settings: T/C of average tumour volume; 200 mg/kg po qd; p<0.05
Description: (§2) All procedures involving animals were approved by the Animal Welfare and Ethical Review Body of the Institute of Cancer Research and Cancer Research UK Manchester Institute in accordance with National Home Office regulations under the Animals (Scientific Procedures) Act 1986 and according to the guidelines of the Committee of the National Cancer Research Institute Tumour size was determined by caliper measurements of tumour length, width and depth and volume was calculated as volume=0.5236×length×width×depth (mm).
as §1, with “In all experiments, mice were humanely killed and mammary tumours and lungs were collected when the primary tumours reached ethical limits or signs of ill health.” left out
(§3) For therapeutic efficacy assessment, the ratio of average tumour volume between compound treated and vehicle control treated (T/C) is calculated. […] The efficacy of LOX inhibitors described in this invention, as measured by T/C in breast cancer models is shown in Table 4 and is significant (p<0.05) for all the data presented.

[3] = tested on: MDA-MB-231 human breast adenocarcinoma; assay: MDA-MB-231 xenografts, primary tumour volume; settings: T/C of average tumour volume; 200 mg/kg po qd; p<0.05
Description: as §2
MDA-MB-231 xenografts. […] Tumours and weights are measured twice weekly using calipers and the animals can be imaged using non invasive method by bioluminescence using IVIS 200 imaging machine, weekly using 150 mg/kg luciferin administrate intraperitoneal or subcutaneous. […] Frozen samples kept at −80 degree centigrade until being analyzed and the fixed samples stained according to desired marker.
as §3

CCOc1ccc(N2C[C@@H]3C[C@H]2CN3C(=O)CS(=O)(=O)CCN)cc1 [drawing 226]
MMT-PyMT breast transgenic model - metastases a) Count (T/C) [1]: a) 0.14
MMT-PyMT breast transgenic model - primary tumour (T/C) [2]: 0.6
MDA-MB-231 human breast adenocarcinoma - primary tumour (T/C) [3]: 0.54
